Test results as given in the supplement of paper PMC8149375.

How the values were obtained:
Conditions in all cases: treatment: drug + dasatinib (fixed dose, not stated); 5 days
CAKI-1 [1] = test: minimum viability across doses, drug + dasatinib, relative to DMSO (fraction); higher = less growth inhibition
Experimental: (§1)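 Primary HTS combination arm: 8 RCC cell lines treated with 8 doses (up to 10 uM) of each library drug plus a fixed dose of dasatinib (dose not stated) for 5 days; viability read by CellTiter-Glo and normalised to DMSO. GI50 was fitted with XLfit, AUC is the area under the dose-response curve, and minimum viability is the lowest fraction of DMSO viability across doses.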

ACHN [2] = test: as above
Experimental: as §1

786-O [3] = test: as above
Experimental: as §1

769-P [4] = test: as above
Experimental: as §1

UO-31 [5] = test: as above
Experimental: as §1

SN12C [6] = test: as above
Experimental: as §1

TK-10 [7] = test: as above
Experimental: as §1

A498 [8] = test: as above
Experimental: as §1

CAKI-1 [9] = test: AUC of dose-response viability curve, drug + dasatinib, normalised to DMSO (arbitrary (AUC of normalised viability)); higher = less growth inhibition
Experimental: as §1

ACHN [10] = test: as above
Experimental: as §1

786-O [11] = test: as above
Experimental: as §1

769-P [12] = test: as above
Experimental: as §1

UO-31 [13] = test: as above
Experimental: as §1

SN12C [14] = test: as above
Experimental: as §1

TK-10 [15] = test: as above
Experimental: as §1

A498 [16] = test: as above
Experimental: as §1

CAKI-1 [17] = test: GI50 of drug in presence of dasatinib; higher = less potent
Experimental: as §1

ACHN [18] = test: as above
Experimental: as §1

786-O [19] = test: as above
Experimental: as §1

769-P [20] = test: as above
Experimental: as §1

UO-31 [21] = test: as above
Experimental: as §1

SN12C [22] = test: as above
Experimental: as §1

TK-10 [23] = test: as above
Experimental: as §1

A498 [24] = test: as above
Experimental: as §1

Structure (SMILES)	minimum viability across doses (CAKI-1 [1])	minimum viability across doses (ACHN [2])	minimum viability across doses (786-O [3])	minimum viability across doses (769-P [4])	minimum viability across doses (UO-31 [5])	minimum viability across doses (SN12C [6])	minimum viability across doses (TK-10 [7])	minimum viability across doses (A498 [8])	AUC of dose-response viability curve (CAKI-1 [9])	AUC of dose-response viability curve (ACHN [10])	AUC of dose-response viability curve (786-O [11])	AUC of dose-response viability curve (769-P [12])	AUC of dose-response viability curve (UO-31 [13])	AUC of dose-response viability curve (SN12C [14])	AUC of dose-response viability curve (TK-10 [15])	AUC of dose-response viability curve (A498 [16])	GI50 of drug (CAKI-1 [17])	GI50 of drug (ACHN [18])	GI50 of drug (786-O [19])	GI50 of drug (769-P [20])	GI50 of drug (UO-31 [21])	GI50 of drug (SN12C [22])	GI50 of drug (TK-10 [23])	GI50 of drug (A498 [24])
Cc1cc(Nc2cc(N3CCN(C)CC3)nc(/C=C/c3ccccc3)n2)n[nH]1.O=C(O)[C@H](O)[C@@H](O)C(=O)O [ENMD-2076] + Cc1nc(Nc2ncc(C(=O)Nc3c(C)cccc3Cl)s2)cc(N2CCN(CCO)CC2)n1 [dasatinib]	0.00949	0.0393	0.0877	0.131	0.0131	0.0567	0.164	0.247	1.4	1.32	1.78	1.92	2.5	1.81	1.91	2.4	194 nM	77.4 nM	439 nM	1000 nM	886 nM	400 nM	396 nM	1270 nM
C#Cc1cccc(Nc2ncnc3cc(OCCOC)c(OCCOC)cc23)c1.Cl [Erlotinib HCl] + Cc1nc(Nc2ncc(C(=O)Nc3c(C)cccc3Cl)s2)cc(N2CCN(CCO)CC2)n1 [dasatinib]	0.125	0.114	0.469	0.234	0.249	0.589	0.37	0.718	1.97	1.73	2.65	1.94	3.03	2.54	2.4	3.48	1060 nM	206 nM	8920 nM	440 nM	5540 nM	> 10000 nM	2440 nM	> 10000 nM
CN1CC[C@H](c2c(O)cc(O)c3c(=O)cc(-c4ccccc4Cl)oc23)[C@H](O)C1.Cl [Flavopiridol hydrochloride] + Cc1nc(Nc2ncc(C(=O)Nc3c(C)cccc3Cl)s2)cc(N2CCN(CCO)CC2)n1 [dasatinib]	0.0304	0.00412	0.00472	0.0135	0.00894	0.00632	0.168	0.0115	1.02	0.849	0.837	1.34	1.98	1.28	1.53	1.74	33.6 nM	24.5 nM	34.9 nM	86 nM	252 nM	106 nM	119 nM	171 nM
CC(C)NC[C@@H](C(=O)N1CCN(c2ncnc3c2[C@H](C)C[C@H]3O)CC1)c1ccc(Cl)cc1 [GDC-0068] + Cc1nc(Nc2ncc(C(=O)Nc3c(C)cccc3Cl)s2)cc(N2CCN(CCO)CC2)n1 [dasatinib]	0.311	0.247	0.21	0.628	0.0701	0.563	0.292	0.74	2.12	1.43	1.4	2.59	4.11	2.39	2.07	3.38	1750 nM	6.5 nM	24.5 nM	> 10000 nM	4910 nM	> 10000 nM	1190 nM	> 10000 nM
OCCn1cc(-c2ccc3c(c2)CC/C3=N\O)c(-c2ccncc2)n1 [GDC-0879] + Cc1nc(Nc2ncc(C(=O)Nc3c(C)cccc3Cl)s2)cc(N2CCN(CCO)CC2)n1 [dasatinib]	0.738	0.354	0.568	0.605	0.894	0.686	0.716	0.804	2.86	2.12	2.39	2.36	3.45	2.62	3.05	3.55	> 10000 nM	4230 nM	> 10000 nM	> 10000 nM	> 10000 nM	> 10000 nM	> 10000 nM	> 10000 nM
CS(=O)(=O)N1CCN(Cc2cc3nc(-c4cccc5[nH]ncc45)nc(N4CCOCC4)c3s2)CC1 [GDC-0941] + Cc1nc(Nc2ncc(C(=O)Nc3c(C)cccc3Cl)s2)cc(N2CCN(CCO)CC2)n1 [dasatinib]	0.0678	0.163	0.00743	0.111	0.0152	0.235	0.171	0.319	1.48	1.55	1.81	1.73	1.71	1.96	1.93	2.56	111 nM	82.6 nM	225 nM	234 nM	172 nM	386 nM	302 nM	3090 nM
Cc1c(CN2CCN(C(=O)[C@H](C)O)CC2)sc2c(N3CCOCC3)nc(-c3cnc(N)nc3)nc12 [GDC-0980 (RG7422)] + Cc1nc(Nc2ncc(C(=O)Nc3c(C)cccc3Cl)s2)cc(N2CCN(CCO)CC2)n1 [dasatinib]	0.02	0.0521	0.00396	0.0451	0.00909	0.0934	0.0374	0.17	1.36	1.12	1.47	1.44	2.18	1.45	1.47	2.4	102 nM	25.5 nM	81.1 nM	80.4 nM	268 nM	119 nM	103 nM	658 nM
